2 compounds from article PMC10799918, “Revealing the mechanistic interactions of profenofos and captan pesticides with serum protein via biophysical and computational investigations” (Scientific Reports, 2024) can be followed below.

Molecules are shown by their SMILES.

The experiment has as its target T1, bovine serum albumin (BSA) (Bos taurus, UniProt P02769).
T1 construct: gene ALB; PDB 4F5S used for docking only
Briefly: intrinsic fluorescence quenching (ex […] nm, em […] nm), double-logarithmic plot. It counts as binding. The settings on record: 310 K, pH 7.4, 10 mM Tris-HCl, 150 mM NaCl, 2 uM BSA, 0.1% acetonitrile, no site probe; double-log.

T1 sequence (P02769 25-607): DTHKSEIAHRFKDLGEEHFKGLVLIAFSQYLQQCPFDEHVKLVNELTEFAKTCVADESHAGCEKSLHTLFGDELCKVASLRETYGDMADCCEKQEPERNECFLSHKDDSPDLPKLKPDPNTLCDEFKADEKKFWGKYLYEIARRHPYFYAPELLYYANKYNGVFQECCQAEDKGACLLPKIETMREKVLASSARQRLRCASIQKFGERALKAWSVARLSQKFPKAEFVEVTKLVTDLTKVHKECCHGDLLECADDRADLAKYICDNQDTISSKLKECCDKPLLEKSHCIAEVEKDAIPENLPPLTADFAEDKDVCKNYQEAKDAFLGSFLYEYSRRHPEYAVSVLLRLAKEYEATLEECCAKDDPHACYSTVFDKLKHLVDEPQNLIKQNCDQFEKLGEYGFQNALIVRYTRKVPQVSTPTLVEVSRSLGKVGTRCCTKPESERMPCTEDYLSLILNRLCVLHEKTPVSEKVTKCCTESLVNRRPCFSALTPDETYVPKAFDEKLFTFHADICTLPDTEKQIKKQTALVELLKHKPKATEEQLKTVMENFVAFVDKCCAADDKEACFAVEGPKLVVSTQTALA

`O=C1C2CC=CCC2C(=O)N1SC(Cl)(Cl)Cl` (centres unmarked) [compound 2, 2-(trichloromethylsulfanyl)-3a,4,7,7a-tetrahydroisoindole-1,3-dione]: the “Ka (M^-1)” value was 14,581 ± 1.40 M^-1.

For `CCCSP(=O)(OCC)Oc1ccc(Br)cc1Cl` (centres unmarked) [compound 1, 4-bromo-2-chloro-1-[ethoxy(propylsulfanyl)phosphoryl]oxybenzene], the “Ka” value is 3897 ± 1.49 M⁻¹.
